Reference: patent US12516038B2, “Inhibitors of antigen presentation by HLA-DR” (Janssen Pharmaceutica NV, priority 2020, dated 2026)

What was measured:
[1] = molecular target: HLA-DRB1*0401 (Homo sapiens (Human), UniProt P01903+P01911, A100K/A169T/DEL228-266/F76Y/I96L/K127E/L162R/M171V/N62H/P40V/Q125Y/R42H/S133A/S149N/S66Y/V115G/V209L/W38E); assay: HLA-DR4 HTRF assay; type: binding; settings: inhibition of loading of Alexa Fluor 647-labeled Cit-CII peptide onto HLA-DR4 (CLIP cleaved)
Procedure, shortened: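 HLA-DRB1*04:01 construct (α/β fused to human Fc, CLIP pre-cleaved by HRV3C overnight at 4° C) at 3 nM was preincubated 45 min with compound and 1 nM anti-Fc-Tb donor, then 40 nM Alexa647-Cit-CII1236-1249 peptide added. After 90 min at 37° C, the 665/620 nm HTRF ratio gave % inhibition; IC50 by nonlinear regression.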

[2] = system: HLA-DR4 restricted mouse T cell hybridoma line (DR4.CII.36.8) with HLA-DRB1*04:01-expressing Boleth cells; assay: HLA-DR4-restricted peptide-specific T cell-based assay (hybridoma assay); settings: Mus musculus, T-cell, 6 h, inhibition of IL-2 production, CII259-273 peptide presented by Boleth cells
Procedure, shortened: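 IC50 values derive from 4-parameter logistic fits of IL-2 AlphaLISA signal over 8-point duplicate titrations. Compound and HLA-DRB1*04:01 Boleth APCs were preincubated 1 h, 37° C., before adding CII259-273-restricted DR4.CII.36.8 hybridoma cells with peptide for 6 h at 37° C., in DMEM/1% FCS.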

Structure (SMILES)	IC50 [1] [nM]	IC50 [2] [nM]
NC(=O)c1ccc([C@H](Oc2ccc3c(c2)OCCC3=O)c2ccncn2)cc1 (single isomer, unassigned) [Example 33b, (*S)-4-(((4-Oxochroman-7-yl)oxy)(pyrimidin-4-yl)methyl)benzamide]	590	> 15000
COc1cc(C(N)=O)ccc1[C@H](Oc1ccc2c(c1C)OCCC2=O)c1ccncc1 (single isomer, unassigned) [Example 82a, (*R)-3-Methoxy-4-(((8-methyl-4-oxochroman-7-yl)oxy)(pyridin-4-yl)methyl)benzamide]	710	> 15000
Cc1c(O[C@@H](c2ccncc2)c2ccc(C(N)=O)c(F)c2)c(F)cc2c1OCCC2=O (single isomer, unassigned) [Example 95b, (*S)-2-fluoro-4-(((6-fluoro-8-methyl-4-oxochroman-7-yl)oxy)(pyridin-4-yl)methyl)benzamide]	220	1100
Cc1c(O[C@@H]2CCCc3cc(C(N)=O)ccc32)ccc2c1OCCC2=O (single isomer, unassigned) [Example 123a, (*R)-5-((8-methyl-4-oxochroman-7-yl)oxy)-5,6,7,8-tetrahydronaphthalene-2-carboxamide]	630	7900
COc1c(O[C@H](c2ccncc2)c2ccc(C(N)=O)cc2)ccc2c1OCCC2=O (single isomer, unassigned) [Example 100b, (*S)-4-(((8-methoxy-4-oxochroman-7-yl)oxy)(pyridin-4-yl)methyl)benzamide]	9000	2300
COc1cccc([C@H](Oc2ccc3c(c2)OCCC3=O)c2ccncc2)c1 (single isomer, unassigned) [Example 13a, (*R)-7-((3-methoxyphenyl)(pyridin-4-yl)methoxy)chroman-4-one]	2000	> 15000
CC[C@@H]1CC(=O)c2ccc(OCc3ccncc3OC)cc2O1 (single isomer, unassigned) [Example 119a, (*R)-2-ethyl-7-((3-methoxypyridin-4-yl)methoxy)chroman-4-one]	540	13000
NC(=O)c1ccc([C@H](Oc2ccc3c(c2)OCCC3=O)c2ccccn2)cc1 (single isomer, unassigned) [Example 32b, (*S)-4-(((4-oxochroman-7-yl)oxy)(pyridin-2-yl)methyl)benzamide]	1900	> 15000
O=C1CCOc2cc(OC(c3ccncc3)c3ccccn3)ccc21 (racemic) [Example 6, (R,S)-7-(Pyridin-2-yl(pyridin-4-yl)methoxy)chroman-4-one]	1800	1400
Cc1c(O[C@@H](c2ccc(C#N)cc2)c2ccc(C(N)=O)cc2)ccc2c1OCCC2=O (single isomer, unassigned) [Example 59b, (*S)-4-((4-cyanophenyl)((8-methyl-4-oxochroman-7-yl)oxy)methyl)benzamide]	1300	> 15000
Cc1c(O[C@H]2CCCc3cc(C#N)ccc32)ccc2c1OCCC2=O (single isomer, unassigned) [Example 122b, (*S)-5-((8-methyl-4-oxochroman-7-yl)oxy)-5,6,7,8-tetrahydronaphthalene-2-carbonitrile]	930	15000
CC(C)c1c(O[C@H](c2ccc(C(N)=O)cc2)c2ccc(C(=O)O)cc2)ccc2c1OCCC2=O (single isomer, unassigned) [Example 108a, (*R)-4-((4-carbamoylphenyl)((8-isopropyl-4-oxochroman-7-yl)oxy)methyl)benzoic acid]	860	> 15000
Cc1c(O[C@@H]2CCc3cc(C(N)=O)ccc32)ccc2c1OCCC2=O (single isomer, unassigned) [Example 121a, (*R)-1-((8-methyl-4-oxochroman-7-yl)oxy)-2,3-dihydro-1H-indene-5-carboxamide]	930	> 15000
Cc1c(O[C@H](c2ccncc2)c2cccc(F)c2)c(F)cc2c1OCCC2=O (single isomer, unassigned) [Example 96a, (*R)-6-fluoro-7-((3-fluorophenyl)(pyridin-4-yl)methoxy)-8-methylchroman-4-one]	300	11000
NC(=O)c1ccc([C@@H](Oc2ccc3c(c2)OCCC3=O)c2ccnc(N)c2)cc1 (single isomer, unassigned) [Example 28a, (*R)-4-((2-aminopyridin-4-yl)((4-oxochroman-7-yl)oxy)methyl)benzamide]	1800	6900
Cc1c(O[C@H](c2ccc(C(N)=O)cc2)c2ccc(S(C)(=O)=O)cc2)c(F)cc2c1OCCC2=O (single isomer, unassigned) [Example 93a, (*R)-4-(((6-fluoro-8-methyl-4-oxochroman-7-yl)oxy)(4-(methylsulfonyl)phenyl)methyl)benzamide]	190	6000
Cc1c(OC2CCCc3cc(C(N)=O)ccc32)ccc2c1OCCC2=O (racemic) [Example 123, (R,S)-5-((8-Methyl-4-oxochroman-7-yl)oxy)-5,6,7,8-tetrahydronaphthalene-2-carboxamide]	520	15000
N#Cc1ccc(C(Oc2ccc3c(c2)OCCC3=O)c2ccncc2)cc1 (racemic) [Example 10, (R,S)-4-(((4-Oxochroman-7-yl)oxy)(pyridin-4-yl)methyl)benzonitrile]	770	8700
Cc1cc2c(c(C)c1O[C@H](c1ccc(F)cc1)c1ccc(C(N)=O)cc1)OCCC2=O (single isomer, unassigned) [Example 90b, (*S)-4-(((6,8-dimethyl-4-oxochroman-7-yl)oxy)(4-fluorophenyl)methyl)benzamide]	590	7400
Cc1c(O[C@H]2CCc3cnccc32)ccc2c1OCCC2=O (single isomer, unassigned) [Example 124b, (*S)-7-((6,7-dihydro-5H-cyclopenta[c]pyridin-5-yl)oxy)-8-methylchroman-4-one]	740	6000
COc1c(O[C@@H](c2ccncc2)c2ccc(C(N)=O)cc2)ccc2c1OCCC2=O (single isomer, unassigned) [Example 100a, (*R)-4-(((8-methoxy-4-oxochroman-7-yl)oxy)(pyridin-4-yl)methyl)benzamide]	6400	7600
NC(=O)c1ccccc1[C@H](Oc1ccc2c(c1)OCCC2=O)c1ccncc1 (single isomer, unassigned) [Example 8a, (*R)-2-(((4-Oxochroman-7-yl)oxy)(pyridin-4-yl)methyl)benzamide]	680	> 15000
CC[C@@H]1CC(=O)c2ccc(O[C@H](c3ccncc3)c3ccc(C(N)=O)cc3)cc2O1 (single isomer, unassigned) [Example 41a, 4-((*S)—(((*R)-2-ethyl-4-oxochroman-7-yl)oxy)(pyridin-4-yl)methyl)benzamide]	1200	> 15000
Cc1c(O[C@H](c2ccc(F)cc2)c2ccc(C(N)=O)cc2)ccc2c1OCCC2=O (single isomer, unassigned) [Example 66b, (*S)-4-((4-Fluorophenyl)((8-methyl-4-oxochroman-7-yl)oxy)methyl)benzamide]	2400	> 15000
Cc1cc([C@H](Oc2ccc3c(c2C(C)C)OCCC3=O)c2ccc(C(N)=O)cc2)cc(C)n1 (single isomer, unassigned) [Example 106a, (*R)-4-((2,6-dimethylpyridin-4-yl)((8-isopropyl-4-oxochroman-7-yl)oxy)methyl)benzamide]	470	57
NC(=O)c1ccc([C@H](Oc2cc(F)c3c(c2)OCCC3=O)c2ccncc2)cc1 (single isomer, unassigned) [Example 51b, (*S)-4-(((5-Fluoro-4-oxochroman-7-yl)oxy)(pyridin-4-yl)methyl)benzamide]	3500	15000
Cc1c(O[C@H](c2ccc(C(N)=O)cc2)c2ccc(F)c(F)c2)c(F)cc2c1OCCC2=O (single isomer, unassigned) [Example 91a, (*R)-4-((3,4-difluorophenyl)((6-fluoro-8-methyl-4-oxochroman-7-yl)oxy)methyl)benzamide]	550	7800
Cc1cc([C@H](Oc2ccc3c(c2C#N)OCCC3=O)c2ccc(C(N)=O)cc2)cc(C)n1 (single isomer, unassigned) [Example 110a, (*R)-4-(((8-cyano-4-oxochroman-7-yl)oxy)(2,6-dimethylpyridin-4-yl)methyl)benzamide]	550	120
NC(=O)c1ccc(C(Oc2ccc3c(c2)OCCC3=O)c2ccnc(C(F)(F)F)c2)cc1 (single isomer, unassigned) [Example 18a, (*R)-4-(((4-oxochroman-7-yl)oxy)(2-(trifluoromethyl)pyridin-4-yl)methyl)benzamide]	1400	> 15000
NC(=O)c1ccc([C@H](Oc2ccc3c(c2)OCCC3=O)c2ccncc2F)cc1 (single isomer, unassigned) [Example 20b, (*S)-4-((3-fluoropyridin-4-yl)((4-oxochroman-7-yl)oxy)methyl)benzamide]	910	6200
